Test in all cases: relative viability (nuclei count vs DMSO), 5 days (fraction); higher = more cells survive
Compound in experiment [1]: C[C@]1(O)C[C@@H](c2nc(-c3ccc4ccc(-c5ccccc5)nc4c3)c3c(N)nccn32)C1 [Linsitinib] + CCNC(=O)c1noc(-c2cc(C(C)C)c(O)cc2O)c1-c1ccc(CN2CCOCC2)cc1 [Luminespib] (partner 0.01 µM)
The gist of the method:
(§1)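 Dosing by pin tool came one day after lung cancer cell lines were seeded in 1536-well plates, using either one drug or a fixed anchor-drug dose plus five library-drug doses (not always all listed) in √10 steps. After 5 days, nuclei were counted on 4× images. Relative viability is treated-well nuclei count divided by vehicle-well nuclei count, and values are medians of duplicate plates.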

Compound in experiment [2]: C[C@]1(O)C[C@@H](c2nc(-c3ccc4ccc(-c5ccccc5)nc4c3)c3c(N)nccn32)C1 [Linsitinib] + CS(=O)(=O)N1CCN(Cc2cc3nc(-c4cccc5[nH]ncc45)nc(N4CCOCC4)c3s2)CC1 [Pictilisib] (partner 1 µM)
The gist of the method: as §1

Compound in experiment [3]: Cc1ccc(C(=O)N(CCCN)[C@@H](c2nc3cc(Cl)ccc3c(=O)n2Cc2ccccc2)C(C)C)cc1 [Ispinesib] + CS(=O)(=O)N1CCN(Cc2cc3nc(-c4cccc5[nH]ncc45)nc(N4CCOCC4)c3s2)CC1 [Pictilisib] (partner 1 µM)
The gist of the method: as §1

On to UMC-11, for which the relative viability in experiment [1] (first compound 0.01 µM) was 1.04; in experiment [1] (first compound 0.03162 µM) it was 0.717; in experiment [1] (first compound 0.1 µM), 0.992; in experiment [1] (first compound 1 µM), 1.02; in experiment [2] (first compound 0.01 µM) it was 0.786; in experiment [2] (first compound 0.03162 µM), 0.735. Further, the relative viability turned out to be 0.834 in experiment [2] (first compound 0.1 µM); 0.691 in experiment [2] (first compound 1 µM); 0.653 in experiment [3] (first compound 0.001 µM); 0.94 in experiment [3] (first compound 0.003162 µM); 0.701 in experiment [3] (first compound 0.01 µM); 0.2 in experiment [3] (first compound 0.03162 µM). In addition, the relative viability in experiment [3] (first compound 0.1 µM) was found to be 0.263.

(Values after the supplement of paper PMC10307832.)
